One molecule from patent US12545673B2, “Imidazopyridine derivative and pharmaceutical composition comprising same as active ingredient” (TSD LIFE SCIENCES CO., LTD., priority 2019, dated 2026) can be followed below.

For data set [1], the system named is acute myeloid leukemia cell line U937. Nature of the data set: Cancer cell proliferation inhibitory activity evaluation 1 (CCK-8), U937. In kind it is cell-based. Conditions: Homo sapiens, U-937, 72 h, read-out: Cancer cell proliferation inhibitory activity U937.
The next data set relates to influenza virus PR8. Nature of the data set: microbe, parasite or virus in culture. In kind it is cell-based. The conditions noted are these: unidentified influenza virus, PR8, MDCK, read-out: Antiviral activity (EC50, μM) PR8.
For data set [2], the system named is acute myeloid leukemia cell line U937. Kind of data set: Cancer cell proliferation inhibitory activity evaluation 2 (CCK-8), U937. In kind it is cell-based. Conditions: Homo sapiens, U-937, 72 h, read-out: Cancer cell proliferation inhibitory activity U937.
Another data set relates to Col6A3. Nature of the data set: Fibrosis inhibition evaluation 1, palmitic acid-induced HepG2, real-time PCR, Col6A3. In kind it is cell-based, human.
In another data set the test system is α-SMA. Kind of data set: Fibrosis inhibition evaluation 1, palmitic acid-induced HepG2, real-time PCR, α-SMA. Conditions: palmitic acid-induced HepG2 (Table 6). In kind it is cell-based, human. Background: Real-time PCR tracks product formation cycle by cycle.
Data set [3] concerns chronic myeloid leukemia cell line K562. Kind of data set: Cancer cell proliferation inhibitory activity evaluation 1 (CCK-8), K562. The conditions noted are these: Homo sapiens, K562, 72 h, read-out: Cancer cell proliferation inhibitory activity K562. In kind it is cell-based.
The next data set concerns influenza virus LE. Kind of data set: microbe, parasite or virus in culture. In kind it is cell-based. Conditions: unidentified influenza virus, MDCK, read-out: Antiviral activity (EC50, μM) LE.
Another data set concerns the target LRRK2 mutant (G2019S) (Homo sapiens (Human), UniProt Q5S007, G2019S). Kind of data set: Evaluation of inhibitory activity against LRRK2 (affinity bead competition binding), G2019S mutant. The conditions noted are these: read-out: Residual active values (%) LRRK2(G2019S). The method, boiled down:
(§1)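 Competition binding against immobilized biotinylated ligand for DNA-tagged wild-type or G2019S LRRK2, produced from T7 phage-infected E. coli (MOI 0.4, 32° C.) lysate then HEK293 cells. Beads blocked and washed in SeaBlock buffer (1% BSA, 0.05% Tween 20, 1 mM DTT); compounds prepared as 40× stocks in 100% DMSO.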

Data set [4] has as its system gastric cancer cell line AGS. Kind of data set: Cancer cell proliferation inhibitory activity evaluation 2 (CCK-8), AGS. In kind it is cell-based. The conditions noted are these: Homo sapiens, 72 h, read-out: Cancer cell proliferation inhibitory activity AGS.
A further data set can be described thus: in vitro. Conditions: dog.
For another data set, the system named is Col1A1. Nature of the data set: Fibrosis inhibition evaluation 1, palmitic acid-induced HepG2, real-time PCR, Col1A1. In kind it is cell-based, human.
Data set [5] deals with human breast cancer cell line MDA-MB-231. Nature of the data set: Cancer cell proliferation inhibitory activity evaluation 1 (CCK-8), MDA-MB-231. The conditions noted are these: MDA-MB-231, 72 h, read-out: Cancer cell proliferation inhibitory activity MDAMB231. In kind it is cell-based.
Another data set concerns influenza virus HK. Kind of data set: microbe, parasite or virus in culture. In kind it is cell-based.
Another data set deals with MLK1 (Homo sapiens (Human), UniProt P80192). Nature of the data set: Evaluation of inhibitory activity of enzyme units, MLK1 ([γ-33P]-ATP filter assay). In kind it is biochemical.
Chain of MLK1 (P80192 whole entry, looked up): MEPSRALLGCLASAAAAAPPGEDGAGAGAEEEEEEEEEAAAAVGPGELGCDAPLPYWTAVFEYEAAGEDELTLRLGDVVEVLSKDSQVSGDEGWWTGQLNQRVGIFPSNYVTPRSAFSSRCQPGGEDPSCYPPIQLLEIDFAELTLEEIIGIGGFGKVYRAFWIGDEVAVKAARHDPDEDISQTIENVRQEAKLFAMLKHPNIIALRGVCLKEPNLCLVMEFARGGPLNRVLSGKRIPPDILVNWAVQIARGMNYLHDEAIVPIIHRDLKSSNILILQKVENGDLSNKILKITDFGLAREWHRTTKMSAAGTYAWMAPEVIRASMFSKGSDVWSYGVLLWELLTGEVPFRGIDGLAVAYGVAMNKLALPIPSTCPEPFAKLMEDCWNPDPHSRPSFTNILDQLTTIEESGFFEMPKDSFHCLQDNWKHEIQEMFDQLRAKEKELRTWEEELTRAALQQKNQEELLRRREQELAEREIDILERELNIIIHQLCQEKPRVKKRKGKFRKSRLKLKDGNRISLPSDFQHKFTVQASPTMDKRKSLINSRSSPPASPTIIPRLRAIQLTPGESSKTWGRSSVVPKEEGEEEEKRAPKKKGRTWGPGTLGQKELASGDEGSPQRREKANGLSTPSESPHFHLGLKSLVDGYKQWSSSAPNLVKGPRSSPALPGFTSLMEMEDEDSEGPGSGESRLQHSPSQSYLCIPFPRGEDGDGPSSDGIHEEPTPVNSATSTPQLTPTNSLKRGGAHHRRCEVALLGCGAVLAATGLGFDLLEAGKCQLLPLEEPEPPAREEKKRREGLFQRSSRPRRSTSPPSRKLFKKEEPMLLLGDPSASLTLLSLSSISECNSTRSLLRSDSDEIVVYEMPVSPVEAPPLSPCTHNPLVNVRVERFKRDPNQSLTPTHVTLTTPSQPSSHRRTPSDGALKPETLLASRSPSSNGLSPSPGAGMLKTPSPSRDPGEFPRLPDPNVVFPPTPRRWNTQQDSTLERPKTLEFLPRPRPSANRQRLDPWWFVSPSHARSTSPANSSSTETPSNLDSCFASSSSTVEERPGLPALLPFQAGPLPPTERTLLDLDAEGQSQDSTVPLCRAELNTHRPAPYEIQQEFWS
In another data set the target is MLK3 (Homo sapiens (Human), UniProt Q16584). Kind of data set: Evaluation of inhibitory activity of enzyme units, MLK3 ([γ-33P]-ATP filter assay). Conditions: read-out: IC50(nM) MLK3.
Chain of MLK3 (Q16584 whole entry, looked up): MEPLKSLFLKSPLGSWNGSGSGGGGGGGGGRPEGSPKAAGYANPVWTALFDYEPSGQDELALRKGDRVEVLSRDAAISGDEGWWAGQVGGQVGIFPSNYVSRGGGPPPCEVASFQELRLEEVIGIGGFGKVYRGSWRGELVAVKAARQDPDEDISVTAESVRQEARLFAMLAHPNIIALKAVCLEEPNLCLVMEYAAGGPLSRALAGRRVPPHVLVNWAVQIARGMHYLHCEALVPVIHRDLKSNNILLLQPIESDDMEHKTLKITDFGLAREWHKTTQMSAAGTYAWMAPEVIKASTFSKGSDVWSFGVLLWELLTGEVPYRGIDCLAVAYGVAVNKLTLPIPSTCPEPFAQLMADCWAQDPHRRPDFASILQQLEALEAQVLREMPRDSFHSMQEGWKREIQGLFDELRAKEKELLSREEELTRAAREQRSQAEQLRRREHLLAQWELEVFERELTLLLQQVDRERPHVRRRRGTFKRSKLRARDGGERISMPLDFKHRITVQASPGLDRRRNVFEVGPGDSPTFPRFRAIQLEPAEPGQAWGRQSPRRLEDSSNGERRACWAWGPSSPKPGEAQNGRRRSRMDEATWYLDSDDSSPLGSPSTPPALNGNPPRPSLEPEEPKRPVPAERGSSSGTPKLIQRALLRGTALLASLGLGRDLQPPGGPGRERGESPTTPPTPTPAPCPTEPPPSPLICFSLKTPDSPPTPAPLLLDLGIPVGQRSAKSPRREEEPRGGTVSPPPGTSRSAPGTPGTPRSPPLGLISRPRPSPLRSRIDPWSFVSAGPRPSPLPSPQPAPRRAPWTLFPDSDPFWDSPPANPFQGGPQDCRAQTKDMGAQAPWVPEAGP
Data set [6] concerns colorectal cancer cell line HT-29. Kind of data set: Cancer cell proliferation inhibitory activity evaluation 1 (CCK-8), HT-29. In kind it is cell-based. Conditions: Homo sapiens, HT-29, 72 h, read-out: Cancer cell proliferation inhibitory activity HT29.
For data set [7], the system named is acute lymphoblastic leukemia cell line Jurkat. Kind of data set: Cancer cell proliferation inhibitory activity evaluation 2 (CCK-8), Jurkat. In kind it is cell-based. The conditions noted are these: Homo sapiens, 72 h, read-out: Cancer cell proliferation inhibitory activity Jurkat.
Another data set addresses LRRK2 wild-type (Homo sapiens (Human), UniProt Q5S007). Kind of data set: Evaluation of inhibitory activity against LRRK2 (affinity bead competition binding), wild-type. Conditions: read-out: Residual active values (%) LRRK2. Summed up:
as §1

Chain of LRRK2 wild-type (Q5S007 whole entry, looked up): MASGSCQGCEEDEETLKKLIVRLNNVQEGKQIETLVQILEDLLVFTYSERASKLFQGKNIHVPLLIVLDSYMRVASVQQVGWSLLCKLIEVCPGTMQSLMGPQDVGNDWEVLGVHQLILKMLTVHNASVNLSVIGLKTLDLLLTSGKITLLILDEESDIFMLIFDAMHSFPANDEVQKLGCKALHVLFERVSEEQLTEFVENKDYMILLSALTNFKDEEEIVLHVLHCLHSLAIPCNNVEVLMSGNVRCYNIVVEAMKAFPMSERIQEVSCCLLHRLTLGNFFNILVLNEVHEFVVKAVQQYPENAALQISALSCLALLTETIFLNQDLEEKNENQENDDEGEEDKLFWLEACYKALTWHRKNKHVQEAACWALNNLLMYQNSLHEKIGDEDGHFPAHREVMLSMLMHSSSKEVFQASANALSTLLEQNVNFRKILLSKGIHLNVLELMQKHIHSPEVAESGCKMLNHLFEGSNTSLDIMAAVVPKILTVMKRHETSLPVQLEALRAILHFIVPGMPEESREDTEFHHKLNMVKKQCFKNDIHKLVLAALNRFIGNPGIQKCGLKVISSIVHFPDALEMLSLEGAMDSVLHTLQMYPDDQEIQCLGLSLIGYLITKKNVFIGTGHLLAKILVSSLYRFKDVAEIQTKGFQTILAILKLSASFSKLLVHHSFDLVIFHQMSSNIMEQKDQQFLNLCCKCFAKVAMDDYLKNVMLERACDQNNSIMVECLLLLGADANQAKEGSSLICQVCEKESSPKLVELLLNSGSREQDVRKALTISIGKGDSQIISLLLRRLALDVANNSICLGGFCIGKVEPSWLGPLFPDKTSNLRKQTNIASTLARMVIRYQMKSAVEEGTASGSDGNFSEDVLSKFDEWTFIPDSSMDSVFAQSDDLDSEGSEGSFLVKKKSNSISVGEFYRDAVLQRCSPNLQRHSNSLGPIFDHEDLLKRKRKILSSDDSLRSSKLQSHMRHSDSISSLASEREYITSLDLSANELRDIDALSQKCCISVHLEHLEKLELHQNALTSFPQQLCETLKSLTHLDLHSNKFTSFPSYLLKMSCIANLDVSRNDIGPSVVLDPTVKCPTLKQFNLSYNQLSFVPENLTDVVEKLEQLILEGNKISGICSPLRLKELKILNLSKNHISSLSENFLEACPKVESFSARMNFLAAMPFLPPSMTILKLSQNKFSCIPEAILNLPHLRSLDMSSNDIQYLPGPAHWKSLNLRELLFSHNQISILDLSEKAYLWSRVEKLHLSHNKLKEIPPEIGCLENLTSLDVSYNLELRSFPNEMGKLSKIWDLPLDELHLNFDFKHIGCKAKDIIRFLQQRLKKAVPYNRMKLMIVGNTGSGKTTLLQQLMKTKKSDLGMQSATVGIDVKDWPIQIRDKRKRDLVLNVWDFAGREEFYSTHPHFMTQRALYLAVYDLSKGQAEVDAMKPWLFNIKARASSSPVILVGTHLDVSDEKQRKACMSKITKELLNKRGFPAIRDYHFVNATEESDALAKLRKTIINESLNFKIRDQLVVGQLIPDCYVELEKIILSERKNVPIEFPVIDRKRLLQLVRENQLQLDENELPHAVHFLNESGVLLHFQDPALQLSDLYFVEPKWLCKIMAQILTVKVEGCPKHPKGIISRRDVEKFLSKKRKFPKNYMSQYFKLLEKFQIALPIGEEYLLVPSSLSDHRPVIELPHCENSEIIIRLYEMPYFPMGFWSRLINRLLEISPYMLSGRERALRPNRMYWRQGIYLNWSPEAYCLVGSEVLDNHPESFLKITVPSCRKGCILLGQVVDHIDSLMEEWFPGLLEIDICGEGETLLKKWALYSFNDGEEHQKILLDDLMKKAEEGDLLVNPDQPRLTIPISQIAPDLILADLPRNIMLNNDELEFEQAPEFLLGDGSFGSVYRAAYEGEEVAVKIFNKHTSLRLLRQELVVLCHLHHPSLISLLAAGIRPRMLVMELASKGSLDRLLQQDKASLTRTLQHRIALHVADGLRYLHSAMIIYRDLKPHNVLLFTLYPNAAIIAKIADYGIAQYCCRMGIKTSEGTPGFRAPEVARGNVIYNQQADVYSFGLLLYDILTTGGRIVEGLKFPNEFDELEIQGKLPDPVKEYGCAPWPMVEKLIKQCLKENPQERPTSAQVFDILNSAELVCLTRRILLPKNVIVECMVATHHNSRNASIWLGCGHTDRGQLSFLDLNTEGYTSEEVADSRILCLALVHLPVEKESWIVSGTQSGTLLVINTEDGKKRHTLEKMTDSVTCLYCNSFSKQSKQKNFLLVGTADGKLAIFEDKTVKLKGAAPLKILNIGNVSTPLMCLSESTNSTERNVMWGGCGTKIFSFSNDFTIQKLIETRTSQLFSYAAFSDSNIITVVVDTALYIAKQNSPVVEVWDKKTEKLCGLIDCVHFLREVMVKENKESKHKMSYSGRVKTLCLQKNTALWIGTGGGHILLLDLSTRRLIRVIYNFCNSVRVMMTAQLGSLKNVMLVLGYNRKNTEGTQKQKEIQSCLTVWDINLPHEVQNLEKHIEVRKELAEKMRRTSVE
Chain of LRRK2 mutant (G2019S) (Q5S007 whole entry G2019S, looked up): as the sequence (Q5S007 whole entry, looked up) above, with G2019S counted along it

One may read the EC50 as the concentration that produces a half-maximal response. For orientation: IC50 means the concentration that inhibits the measured activity by half. In the case of `CCS(=O)(=O)N1CC[C@H](Nc2c(Br)cnc3[nH]c(-c4cc(C)n(-c5cc(NS(C)(=O)=O)ccc5C)c4C)nc23)C1` [Example 7, N-(3-(3-(6-bromo-7-(((S)-1-(ethylsulfonyl)pyrrolidine-3-yl)amino)-3H-imidazo[4,5-b]pyridine-2-yl)-2,5-dimethyl-1H-pyrrol-1-yl)-4-methylphenyl) methanesulfonamide], the inhibition at 10 µM is over 50% in data set [1]; over 50% in data set [2]; over 50% in [3]; over 50% in data set [4]; 10 to 50% in data set [5]; 10 to 50% in data set [6]. Further, the inhibition at 10 µM in data set [7] is over 50%. The EC50 in the data set with influenza virus PR8 was 31.9 µM; with influenza virus LE, over 100 µM; in the data set with influenza virus HK (unidentified influenza virus, MDCK, read-out: Antiviral activity (EC50, μM) HK), 40 µM. In the data set on Col6A3, the “Relative degree of expression inhibition (%) Col6A3” value is listed as 116.2%. For the same molecule, in the data set on α-SMA, the “Relative degree of expression inhibition (%) α-SMA” value was 73.1%. The figures for the remaining binding at 0.1 µM at LRRK2 mutant (G2019S) (100 nM) and on LRRK2 wild-type (100 nM) were 2.3% and 2.9%, respectively. For the same molecule, the remaining binding at 0.5 µM at LRRK2 mutant (G2019S) (500 nM) came to 1.5%; on LRRK2 wild-type (500 nM) it was 0.4%. For the same molecule, the CC50 at 3 days in “in vitro” was over 100 µM. In the data set on Col1A1, the “Relative degree of expression inhibition (%) Col1A1” value amounted to 200.2%. The “Selectivity index: CC50/EC50 HK” value with influenza virus HK is given as over 2.5. Also, the IC50 on MLK1 worked out at 44 nM; at MLK3, 6 nM.
